Source: patent publication US20250154135A1, “M-CHOLINE RECEPTOR AGONIST COMPOUND, PREPARATION METHOD THEREFOR AND USE THEREOF” (NANJING GRITPHARMA CO., LTD., priority 2022, published 2025)
Several values for one entry are separate records, joined by “and”; a condition that tells them apart may be missing. Equal values may be shown once. Where a name gives a salt, the structure may show the parent alone. One block for each compound: values may come before it.

Tests used:
rabbit pupil [1] = assay: Rabbit pupil constriction after single eye drop (Test Example 1); type: in vivo, New Zealand rabbit; conditions: rabbits, Test Example 1 solutions
Procedure: Except for group 5), the eye drop solutions of groups 1) to 12) described above contained an equimolar concentration of pilocarpine. The molar concentration of pilocarpine in the eye drop solution of group 5) was half of the molar concentration of pilocarpine in the solutions of the other 11 groups.
The effects of the eye drop solutions of groups 1) to 12) prepared above on rabbit pupil constriction and irritation were tested separately.
• Species and strain: New Zealand rabbit • Grade: normal • Source: Qinglongshan Animal Breeding Farm, Jiangning District, Nanjing • Production license No.: SCXK (Su) 2016-0008 • Animal age: about 110 days old at the time of administration • Animal body weight: about 2.5-3.5 kg at the time of administration • Animal sex: all male • Feed: rabbit pellet feed • Housing conditions: air-conditioned room, with a temperature of 18-26° C. and a relative humidity of 40%-80%.
• Digital vernier caliper: specification: 0-150 mm; measurement accuracy: 0.01 mm; manufacturer: Guilin Guanglu Measuring Instrument Co., Ltd.
(§1) Each rabbit was subjected to eye drop administration in the left eye (using a pipette), with an administration volume of 100 μL.
• Number of animals: for JQ series compounds, 6 rabbits per compound; for compounds 1, 2 and 4, 5 rabbits per compound. • Administration schedule: single administration. Measurement indicators and time points: • for JQ series compounds, the pupil diameter of the left eye of the rabbits was measured at time points of −0.5 h (i.e., half an hour before administration), 5 min, 10 min, 15 min, 0.5 h, 3 h and 4 h relative to administration, with the measurement repeated 3 times for each rabbit at each time point (measurement time points were extended if necessary); • for compounds 1, 2 and 4, the pupil diameter of the left eye of the rabbits was measured at time points of 3 h and 4 h relative to administration, with the measurement repeated 3 times for each rabbit at each time point (measurement time points were extended if necessary).
Percentage change in pupil diameter (%) after administration=(pupil diameter after administration−pupil diameter before administration)/pupil diameter before administration×100%
The measurement result for each rabbit at each time point was represented by the average value of three measurements.

rabbit pupil [2] = assay: Rabbit pupil diameter change with other pilocarpine salts (Test Example 2); type: in vivo; conditions: for Percentage change in pupil diameter: average value ± SD; for miosis effect on rabbit pupils 3 h after administration: Table 2-1 solutions, equimolar pilocarpine
Text: Pilocarpine nitrate: with a molecular weight of 271.27 and a purity of 98%, from Nanjing Jiqun Pharmaceutical Technology Co., Ltd., prepared into a 1.38% solution using normal saline. Pilocarpine salicylate: with a molecular weight of 346.24 and a purity of 99.73%, from Nanjing Jiqun Pharmaceutical Technology Co., Ltd., prepared into a 1.76% solution using normal saline. Pilocarpine malate: with a molecular weight of 342.21 and a purity of 99.72%, from Nanjing Jiqun Pharmaceutical Technology Co., Ltd., prepared into a 1.74% solution using normal saline. Pilocarpine maleate: with a molecular weight of 324.19 and a purity of 99.76%, from Nanjing Jiqun Pharmaceutical Technology Co., Ltd., prepared into a 1.65% solution using normal saline. Pilocarpine fumarate: with a molecular weight of 324.19 and a purity of 99.74%, from Nanjing Jiqun Pharmaceutical Technology Co., Ltd., prepared into a 1.65% solution using normal saline. Pilocarpine lipoate: with a molecular weight of 414.58 and a purity of 99.56%, from Nanjing Jiqun Pharmaceutical Technology Co., Ltd., prepared into a 2.11% solution using normal saline. Note: The concentrations of the compounds were different, but they all contained an equimolar amount of pilocarpine. Each rabbit in each group was subjected to single eye drop administration in the left eye, with an administration volume of 100 μL. […] The entire measurement process was completed by the same person.

rabbit eyes = assay: Eye irritation in rabbits (Test Example 2); type: in vivo; conditions: 2.11% solution
rabbit pupil [3] = assay: Rabbit pupil diameter change, pilocarpine p-toluate at different concentrations (Test Example 3); type: in vivo; conditions: 1.25%
Procedure: Under the condition of normal saline, the onset time, strength of effect, duration of effect, and irritation of 1.25% pilocarpine hydrochloride and different concentrations (0.88%, 1.75%, 3.50%) of pilocarpine p-toluate were tested.
as §1
Number of animals: 6 rabbits per compound.
Administration schedule: single administration.
• the pupil diameter of the left eye of the rabbits was measured at time points of −0.5 h (i.e., half an hour before administration), 5 min, 10 min, 15 min, 0.5 h, 3 h and 4 h relative to administration, with the measurement performed 3 times for each rabbit at each time point.

[4] = Stability tests on compound starting materials (HPLC related substances); type: physicochemical; conditions: starting material
Procedure: Samples: compound 1, compound 2 and pilocarpine hydrochloride starting material solid particles.
High-temperature test: 1 g of each of compound 1, compound 2 and pilocarpine hydrochloride starting materials were taken and placed in an open container inside a constant temperature device at 40° C.; samples were taken at time points of day 0 and day 5, and then tested according to the key stability examination items. The stability of the active pharmaceutical ingredient itself and the trend of changes in stability under the conditions of influencing factor tests were observed.
Strong light irradiation test: 1 g of each of compound 1, compound 2 and pilocarpine hydrochloride starting materials were taken and placed in an open container inside a light irradiation box, with the illumination set at 4500 lx±500 lx; samples were taken at time points of day 0 and day 5, and then tested according to the key stability examination items.
High-humidity test: 1 g of each of compound 1, compound 2 and pilocarpine hydrochloride starting materials was taken and placed in an open container inside a constant humidity closed container at 25° C. and with a relative humidity of 75%±5%; samples were taken at day 0 and day 5, and then tested according to the requirements of the key stability examination items.
According to the records in the European Pharmacopoeia (EP), the key related substances to be examined for pilocarpine include: impurity A isopilocarpine (Z-A), impurity B pilocarpic acid (Z-B), and impurity C isopilocarpic acid (Z-C). The samples taken at different time points from the above high-temperature test, strong light irradiation test and high-humidity test were separately tested using high-performance liquid chromatography to observe the trend of changes in stability under the conditions of the influencing factor tests.
The related substances were determined according to the high-performance liquid chromatography (General Chapter 0512, Chinese Pharmacopoeia, Volume IV, 2020 Edition).
Test sample solution: an appropriate amount of each test sample was precisely weighed, dissolved in water, and diluted to prepare a solution containing 1 mg of test sample per 1 mL.
Chromatographic conditions: octadecyl bonded silica gel was used as a filler [kromasil 100-5-C18 column (4.0 mm×[…]) or a chromatographic column with equivalent performance], 0.679 g/L tetrabutylammonium dihydrogen phosphate-methanol-acetonitrile (885:55:60) (adjusted to pH 7.7 with dilute aqueous ammonia) was used as mobile phase A, and acetonitrile-water (80:20) was used as mobile phase B; gradient elution was performed according to Table 6-1, with a column temperature of 30° C., a flow rate of 1.0 mL/min, a detection wavelength of 220 nm, and a sample injection volume of 20 μL.

[5] = Light-5 days (4500 lx), hydrochloride
[6] = RH 75%-5 days, 25° C., hydrochloride
[7] = drug concentration 1.65%, 0.5 h

Compound: CC[C@@H]1C(=O)OC[C@@H]1Cc1cncn1C [Compound 4]
pupil constriction (miosis) effect at 3 h after administration (rabbit pupil [1]): still showed miosis effect

Compound: CC[C@@H]1C(=O)OC[C@@H]1Cc1cncn1C.O=C(O)CCCCC1CCSS1 [Pilocarpine lipoate]
Percentage change in pupil diameter (rabbit pupil [2]; drug concentration 2.11%, 0.5 h): −40.69 ± 2.68% | Percentage change in pupil diameter (rabbit pupil [2]; drug concentration 2.11%, 3 h): −3.11 ± 2.38% | eye irritation on administration (rabbit eyes): caused significant irritation and noticeable hyperemia

Compound: CCC1C(=O)OCC1Cc1cncn1C.O=C(O)c1ccccc1O (stereo not shown) [Pilocarpine salicylate]
miosis effect on rabbit pupils 3 h after administration (rabbit pupil [2]): substantially no miosis effect | Percentage change in pupil diameter (rabbit pupil [2]; drug concentration 1.76%, 0.5 h): −30.12 ± 4.47% | Percentage change in pupil diameter (rabbit pupil [2]; drug concentration 1.76%, 3 h): 2.91 ± 1.07%

(Z-C) impurity C isopilocarpic acid ([4]; 40° C.-5 days): 0% | Maximum single impurity ([4]; 40° C.-5 days): 0% | (Z-A) impurity A isopilocarpine ([4]; 40° C.-5 days, hydrochloride): 0.248% | (Z-B) impurity B pilocarpic acid ([4]; 40° C.-5 days, hydrochloride): 0% | Total impurity ([4]; 40° C.-5 days, hydrochloride): 0.248% | (Z-B) impurity B pilocarpic acid ([4]; Day 0): 0% | (Z-C) impurity C isopilocarpic acid ([4]; Day 0): 0% | Maximum single impurity ([4]; Day 0): 0% | (Z-A) impurity A isopilocarpine ([4]; Day 0, hydrochloride): 0.197% | Total impurity ([4]; Day 0, hydrochloride): 0.197% | (Z-C) impurity C isopilocarpic acid ([4]; Light-5 days (4500 lx)): 0% | Maximum single impurity ([4]; Light-5 days (4500 lx)): 0% | (Z-A) impurity A isopilocarpine [4, 5]: 0.248% | (Z-B) impurity B pilocarpic acid [4, 5]: 0% | Total impurity [4, 5]: 0.248% | (Z-C) impurity C isopilocarpic acid ([4]; RH 75%-5 days, 25° C.): 0% | (Z-A) impurity A isopilocarpine [4, 6]: 0.259% | (Z-B) impurity B pilocarpic acid [4, 6]: 1.641% | Maximum single impurity [4, 6]: 0.123% | Total impurity [4, 6]: 2.023%
Compound: CC[C@@H]1C(=O)OC[C@@H]1Cc1cncn1C [pilocarpine hydrochloride, reference compound]
maximum percentage change in pupil diameter (rabbit pupil [1]): around 35% | pupil constriction (miosis) effect at 3 h after administration (rabbit pupil [1]; hydrochloride): substantially no pupil constriction effect | miosis effect on rabbit pupils 3 h after administration (rabbit pupil [2]): substantially no miosis effect | Percentage change in pupil diameter (rabbit pupil [3]; 5 min, average of 6 rabbits): −7.81% | Percentage change in pupil diameter (rabbit pupil [3]; 5 min, individual rabbit, hydrochloride): −6.28% and −7.23% and −8.93% and −6.51% and −15.75% and −2.17% | Percentage change in pupil diameter (rabbit pupil [3]; 10 min, average of 6 rabbits): −29.35% | Percentage change in pupil diameter (rabbit pupil [3]; 10 min, individual rabbit, hydrochloride): −29.40% and −32.93% and −28.98% and −26.64% and −36.43% and −21.69% | Percentage change in pupil diameter (rabbit pupil [3]; 15 min, average of 6 rabbits): −35.33% | Percentage change in pupil diameter (rabbit pupil [3]; 15 min, individual rabbit, hydrochloride): −40.68% and −36.99% and −33.54% and −33.71% and −42.10% and −24.95% | Percentage change in pupil diameter (rabbit pupil [3]; 0.5 h, average of 6 rabbits): −34.59% | Percentage change in pupil diameter (rabbit pupil [3]; 0.5 h, individual rabbit, hydrochloride): −36.45% and −36.62% and −38.14% and −32.89% and −39.82% and −23.64% | Percentage change in pupil diameter (rabbit pupil [3]; 3 h, average of 6 rabbits): −3.13% | Percentage change in pupil diameter (rabbit pupil [3]; 3 h, individual rabbit, hydrochloride): 4.54% and −0.58% and 0.03% and −6.71% and −16.22% and 0.16% | Percentage change in pupil diameter (rabbit pupil [3]; 4 h, average of 6 rabbits): 0.25% | Percentage change in pupil diameter (rabbit pupil [3]; 4 h, individual rabbit, hydrochloride): −0.15% and −1.79% and 2.79% and 2.49% and −2.39% and 0.54%

Compound: Pilocarpine fumarate
miosis effect on rabbit pupils 3 h after administration (rabbit pupil [2]): substantially no miosis effect | Percentage change in pupil diameter (rabbit pupil [2]; [7]): −22.09 ± 6.44% | Percentage change in pupil diameter (rabbit pupil [2]; drug concentration 1.65%, 3 h): −1.00 ± 1.51%

Compound: Pilocarpine maleate
miosis effect on rabbit pupils 3 h after administration (rabbit pupil [2]): substantially no miosis effect | Percentage change in pupil diameter (rabbit pupil [2]; [7]): −27.53 ± 4.42% | Percentage change in pupil diameter (rabbit pupil [2]; drug concentration 1.65%, 3 h): −1.52 ± 6.38%

Compound: Pilocarpine malate
miosis effect on rabbit pupils 3 h after administration (rabbit pupil [2]): substantially no miosis effect | Percentage change in pupil diameter (rabbit pupil [2]; drug concentration 1.74%, 0.5 h): −27.71 ± 4.98% | Percentage change in pupil diameter (rabbit pupil [2]; drug concentration 1.74%, 3 h): 0.07 ± 2.49%

Compound: CC[C@@H]1C(=O)OC[C@@H]1Cc1cncn1C [Pilocarpine nitrate]
miosis effect on rabbit pupils 3 h after administration (rabbit pupil [2]): substantially no miosis effect
